Consider five molecules from US12310934B2, “Methods of treatment of spontaneous preterm birth” (The Regents of the University of California, priority 2019, dated 2025).

Assay [1] concerns preterm birth. Conditions: pregnant women, literature studies; cited from earlier work.
The subject of assay [2] is LPS-induced fetal wastage in pregnant mice. The assay can be described thus: LPS-induced inflammation mouse model of fetal wastage. The assay is classed as in vivo. To be noted: 3× drug + LPS-100 compared with LPS-100 alone. An excerpt:
FIG. 3A and FIG. 3B depict results from LPS-induced inflammation mouse model of fetal wastage. Circles represent results from independent mouse pregnancies. Error bars represent mean ±SD. Comparisons were made using the Student's two-sided t-test. […] FIG. 3B: The LPS-100 group compared to the P4 positive control group (3×P4+LPS-100) and the lansoprazole treatment group (3×lansoprazole+LPS-100).
Statistical Analysis. Reversal scores were generated for sPTB-drug pairs using a non-parametric, rank-based method based on the Kolgomorov-Smirnov test. Reversal score p-values were obtained by comparing to a distribution of 100,000 random scores and then adjusted via FDR for multiple comparisons. […] To ensure that the significance of the score is specific to the drug in question, for one candidate drug, lansoprazole, we also compared 1,000 random input signatures to the lansoprazole profile. […] For testing the distributions in the mouse model studies, comparisons were made using the 2-tailed Student's t-test and adjusted via FDR for multiple comparisons. A P value less than 0.05 was considered significant.
Inflammation-induced mouse model validation of lansoprazole. Despite having the highest reversal score, cefotaxime shares few protein interactions. Lansoprazole has the next highest reversal score. Moreover, lansoprazole is available over-the-counter, whereas cefotaxime requires a prescription. […]

Entries after “also recorded” stand apart in the source; their conditions may differ.

`Clc1ccccc1C(c1ccccc1)(c1ccccc1)n1ccnc1` [clotrimazole]: in assay [1], the “rate of preterm birth in past studies” value is listed as “significant reduction in the rate of PTB”.
As for `Nc1nc2ncc(CNc3ccc(C(=O)N[C@@H](CCC(=O)O)C(=O)O)cc3)nc2c(=O)[nH]1` [folic acid], in assay [1], the “rate of preterm birth in past studies” value is reported as “possible reduction of preterm birth”.
Turning to `CN(C)C(=N)N=C(N)N` [metformin], the “rate of preterm birth in past studies” value in assay [1] is given as “reduce the rate of PTB compared with placebo”.
On to `Cc1c(OCC(F)(F)F)ccnc1C[S+]([O-])c1nc2ccccc2[nH]1` (stereo not drawn) [lansoprazole], for which the “number of viable fetuses at E12.5” value in assay [2] is “significantly effective in recovering the number of viable fetuses; also recorded: significantly (P<0.05) increase the number of viable fetuses”.
Take `CC(=O)[C@H]1CC[C@H]2[C@@H]3CCC4=CC(=O)CC[C@]4(C)[C@H]3CC[C@]12C` [progesterone]: the “number of viable fetuses at E12.5” value in assay [2] (listed as P4) is “showed some effectiveness at recovering the number of viable fetuses”. Further, the “rate of preterm birth in past studies” value in assay [1] is listed as “effective in reducing the rate of sPTB”.
